Patent publication EP0771564A1, “INTERLEUKIN-5 PRODUCTION INHIBITOR” (TAISHO PHARMACEUTICAL CO. LTD, priority 1994, dated 1996)

Tests used:
[1] = system: IL-5 production; assay: Inhibition of IL-5 production by antigen-stimulated murine Th2 clone D10.G4.1 cells (IL-5 ELISA of culture supernatant); type: cell-based, mice; details: inhibitory effect on IL-5 production, D10.G4.1 cells with MMC-treated antigen presenting cells and conalbumin, 48 hours incubation
Method: Murine Th2 clone (D10.G4.1 cells) was purchased from ATCC. Antigen presenting cells were prepared by suspending 1 x 10^7 spleen cells of a 8-week-old female C3H/HeN mice in 5 ml of an RPMI-1640 medium and incubated together with 50 µg/ml of mitomycin C (MMC) at 37°C for 30 minutes and then washed with three 50 ml portions of RPMI-1640. To RPMI-1640 containing 10% bovine serium were added 0.5 U of IL-2 (produced by Genzyme) and 5 x 10^-5 M of 2-mercaptoethanol to prepare a medium for tissue culture.
In each well of a 96-well microtiter plate (produced by Corning Glass Works) were put each 50 µl/well of 4 x 10^5 cells/ml of D10.G4.1 cells, 2 x 10^6 cells/ml of MMC-treated antigen presenting cells, 400 µg/ml of conalbumin (produced by Sigma) as an antigen and the solution of the test compound in the tissue culture medium (to make 200 µl/well), and incubated in an incubator under 5% CO2 at 37°C for 48 hours. After completion of the incubation, the supernatant liquor of the culture was collected, and the cells were seprated by centrifugation. The IL-5 in the supernatant liquor was determined with an IL-5 ELISA kit produced by ENDOGEN.

[2] = system: ICR male mice; assay: Oral administration safety test in mice (mortality); type: in vivo; details: orally administered to ICR male mice, dose level of 100 mg/kg
Text: The compounds of Examples 1 and 2 were orally administered to ICR male mice grouped in fives.

Row | Compound | IC50 ([1]; Mus musculus) [nM] | death [2] | IC50 [1] [nM]
1 | CC[C@H]1OC(=O)[C@H](C)[C@@H](O[C@H]2C[C@@](C)(OC)[C@@H](O)[C@H](C)O2)[C@H](C)[C@@H](O[C@@H]2O[C@H](C)C[C@H](N(C)C)[C@H]2O)[C@](C)(O)C[C@@H](C)C(=O)[C@H](C)[C@@H](O)[C@]1(C)O [Erythromycin, reference compound] | 4500 | – | –
2 | CCC1OC(=O)C(C)C(Oc2c(F)c(F)c(F)c(F)c2[N+](=O)[O-])C(C)C(OC2OC(C)CC(N(C)C)C2O)C(C)(OC)CC(C)C(=O)C(C)C(O)C1(C)O (centres unmarked) [Compound of Example 2, 3-O-(2-Nitro-3,4,5,6-tetrafluoro)-phenyl-5-O-desosaminyl-6-O-methylerythronolide A] | – | No death was observed | < 100
3 | 3-O-(4-Biphenyl)acetyl-5-O-desosaminyl-6-O-methylerythronolide A 11,12-Cyclic Carbonate [Compound of Example 1] | – | – | < 400
4 | CC[C@H]1OC(=O)[C@H](C)[C@@H](O[C@H]2C[C@@](C)(OC)[C@@H](O)[C@H](C)O2)[C@H](C)[C@@H](O[C@@H]2O[C@H](C)C[C@H](N(C)C)[C@H]2O)[C@](C)(O)C[C@@H](C)/C(=N\OCOCCOC)[C@H](C)[C@@H](O)[C@]1(C)O [Roxithromycin, reference compound] | 930 | – | –
